Experiments:
[1] = INS-1 cell viability (Cell Titer-Glo, ATP); format: cell-based, Rat; conditions: rat, INS-1 cells, 72 hrs treatment
Protocol: INS-1 cell viability was determined based on quantification of ATP using Cell Titer-Glo Luminescent Cell Viability Assay kit (Promega #G7572), which indicates the presence of metabolically active cells. Briefly, INS-1 cells were seeded into 96-well plates at a cell density of 4.5×10^4 and 3.5×10^4 cells per well and incubated overnight at 37° C. with 5% CO2. On the following day, cells were treated with compounds for 24 hrs and 72 hrs respectively. Cell Titer-Glo reagent was added to the cells and Luminescence was acquired on Synergy 4 Reader ([…]).

[2] = system: TXNIP; assay: Inhibition of glucose-induced endogenous TXNIP expression in INS-1 cells (qRT-PCR); format: cell-based, Rat; conditions: Rattus norvegicus, INS1, 24 h, 25 mM glucose; for inhibition at 1.5 µM: 1.5 μM compound; for inhibition at 12.5 µM: 12.5 μM compound
Protocol: The Rat INS-1 cell line was obtained from UAB and maintained in RPMI-1640 (Invitrogen #11875) supplemented with 10% fetal bovine serum (FBS), 100 U/ml penicillin and […] streptomycin, 10 mM HEPES, 1 mM Sodium Pyruvate, 50 μM 2-Mercaptoethanol, and 11.1 mM Glucose in a humidified incubator with a 5% C02 atmosphere at 37° C. 4×10^4 cells per well were seeded to 96-well plate and incubated at 37° C. overnight. A subset of the cells were then cultured in medium with 5 mM Glucose for 24 hrs and then treated in medium with 25 mM glucose with or without compounds to be tested for another 24 hrs.
For the primary high throughput screening (HTS) assay, stably transfected, monoclonal INS-1 cells were split using Trypsin (2 ml per T75 flask) and seeded at a density of 10^4/well in a 384-well plate and incubated overnight at low, 5 mM glucose. The next day, the medium was changed to high glucose (25 mM) or high glucose plus the small molecules to be tested and luciferase assays were performed 24 h later. […] For secondary screens, total RNA was extracted from 96-well cultured cells using RNeasy 96 kit (Qiagen #74181) following the manufacturer's protocol using spin technology. Then a one-step qRT-PCR amplification was performed using QuantiFast SYBR Green RT-PCR kit (Qiagen #204154) and was carried out in a 10 μl reaction which consisted of 2 μl RNA, 0.5 μM each of primers (Rat TXNIP 5′ primer: […] (SEQ ID NO:1) and Rat TXNIP 3′ primer: […] (SEQ ID NO:2); Or Rat 18S rRNA 5′ primer: […] (SEQ ID NO:3) and Rat 18S rRNA 3′ primer: […]) (SEQ ID NO:4), 5 μl 2×SYBR Green Master Mix, 0.1 μl 10× QuantiFast RT Mix. The SYBR Green assay was performed using a LightCycler 480 II (Roche Applied Science) with an initial incubation at 50° C. for 10 min for RT followed by denaturation at 95° C. for 5 min. Forty cycles of amplification were performed using a thermal cycling profile of 95° C. for 10s, 60° C. for 30 s. Subsequently, a melting curve was recorded by holding at 95° C. for 60 s, cooling to 60° C. for 60 s, and then heating at 0.11° C./s up to 95° C. The data was collected and analyzed using the LightCycler 480 Software Release 1.5.0 SP3. The relative amount of TXNIP mRNA was normalized to 18 s rRNA level as a housekeeping gene, and the data was analyzed according to the 2^−ΔΔCT method (1). The transformed data was expressed as % inhibition and compound IC50 calculated by a 4-parameter logistic fit of the data using GraphPad Prism 7.

Structure (SMILES) | CC50 at 72 h [1] [µM] | inhibition at 1.5 µM [2] [%] | inhibition at 12.5 µM [2] [%]
CS(=O)(=O)NCC1CCCN(c2ncnc3ccc(-c4ccccn4)cc23)C1 (stereo not drawn) [Compound 27, N-((1-(6-(pyridin-2-yl)quinazolin-4-yl)piperidin-3-yl)methyl)methanesulfonamide] | 70 | 9 | 4
CS(=O)(=O)NCC1CCCN(c2ncnc3ccc(NC(=O)c4ccccn4)cc23)C1 (stereo not drawn) [Compound 28, N-(4-(3-(methylsulfonamidomethyl)piperidin-1-yl)quinazolin-6-yl)picolinamide] | > 100 | 4 | 5
CS(=O)(=O)NCC1CCCN(c2ncnc3cc(F)c(C#N)cc23)C1 (stereo not drawn) [Compound 29, N-((1-(6-cyano-7-fluoroquinazolin-4-yl)piperidin-3-yl)methyl)methanesulfonamide] | > 100 | 39 | 66
CS(=O)(=O)NCC1CCCN(c2ncnc3cc(F)c(C(F)(F)F)cc23)C1 (stereo not drawn) [Compound 30, N-((1-(7-fluoro-6-(trifluoromethyl)quinazolin-4-yl)piperidin-3-yl)methyl)methane-sulfonamide] | > 100 | 9 | 33
CS(=O)(=O)NC1CCCN(c2ncnc3ccccc23)C1 (stereo not drawn) [Compound 31, N-(1-(quinazolin-4-yl)piperidin-3-yl)methanesulfonamide] | 67 | 17 | 82
CS(=O)(=O)NC1CCCN(c2ncnc3cc(F)ccc23)C1 (stereo not drawn) [Compound 32, N-(1-(7-fluoroquinazolin-4-yl)piperidin-3-yl)methanesulfonamide] | 65 | 21 | 62
CS(=O)(=O)NC1CCCN(c2ncnc3cc(F)c(F)cc23)C1 (stereo not drawn) [Compound 33, N-(1-(6,7-difluoroquinazolin-4-yl)piperidin-3-yl)methanesulfonamide] | 68 | 29 | 68
CS(=O)(=O)NC1CCCN(c2ncnc3ccc(F)cc23)C1 (stereo not drawn) [Compound 34, N-(1-(6-fluoroquinazolin-4-yl)piperidin-3-yl)methanesulfonamide] | 33 | 56 | 61
CS(=O)(=O)NC1CCCN(c2ncnc3ccc(Cl)cc23)C1 (stereo not drawn) [Compound 35, N-(1-(6-chloroquinazolin-4-yl)piperidin-3-yl)methanesulfonamide] | 41 | 38 | 64
CS(=O)(=O)NC1CCCN(c2ncnc3cc(C#N)c(F)cc23)C1 (stereo not drawn) [Compound 36, N-(1-(7-cyano-6-fluoroquinazolin-4-yl)piperidin-3-yl)methanesulfonamide] | 35 | 0 | 34
CS(=O)(=O)NC1CCCN(c2ncnc3cc(F)c(C#N)cc23)C1 (stereo not drawn) [Compound 37, N-(1-(6-cyano-7-fluoroquinazolin-4-yl)piperidin-3-yl)methanesulfonamide] | > 100 | 0 | 24
CS(=O)(=O)NC1CCCN(c2ncnc3ccc(C(F)(F)F)cc23)C1 (stereo not drawn) [Compound 38, N-(1-(6-(trifluoromethyl)quinazolin-4-yl)piperidin-3-yl)methanesulfonamide] | > 100 | 34 | 60
CS(=O)(=O)NC1CCCN(c2ncnc3cc(F)c(C(F)(F)F)cc23)C1 (stereo not drawn) [Compound 39, N-(1-(7-fluoro-6-(trifluoromethyl)quinazolin-4-yl)piperidin-3-yl)methanesulfonamide] | > 100 | 7 | 28
CC(C)N(CC1CCCN(c2ncnc3ccccc23)C1)S(C)(=O)=O (stereo not drawn) [Compound 40, N-isopropyl-N-((1-(quinazolin-4-yl)piperidin-3-yl)methyl)methanesulfonamide] | 70 | 14 | 46
COc1ccc2ncnc(N3CCCC(CN(C(C)C)S(=O)(=O)c4ccccc4)C3)c2c1 (stereo not drawn) [Compound 41, N-isopropyl-N-((1-(6-methoxyquinazolin-4-yl)piperidin-3-yl)methyl)benzene-sulfonamide] | 7 | 36 | 65
CC(C)N(CC1CCCN(c2ncnc3ccc(F)cc23)C1)S(=O)(=O)c1ccccc1 (stereo not drawn) [Compound 42, N-((1-(6-fluoroquinazolin-4-yl)piperidin-3-yl)methyl)-N-isopropylbenzenesulfonamide] | 4 | 32 | 30
CS(=O)(=O)NCC1CCCCN1c1ncnc2cc(C#N)c(F)cc12 (stereo not drawn) [Compound 43, N-((1-(7-cyano-6-fluoroquinazolin-4-yl)piperidin-2-yl)methyl)methane-sulfonamide] | > 100 | 0 | 16
CS(=O)(=O)NCC1CCN(c2ncnc3ccc(F)cc23)CC1 [Compound 44, N-((1-(6-fluoroquinazolin-4-yl)piperidin-4-yl)methyl)methanesulfonamide] | > 100 | 4 | 22
CC(NS(C)(=O)=O)C1CCCN(c2ncnc3cc(F)c(F)cc23)C1 (stereo not drawn) [Compound 45, N-(1-(1-(6,7-difluoroquinazolin-4-yl)piperidin-3-yl)ethyl)methanesulfonamide] | > 100 | 22 | 44
CS(=O)(=O)NCC1CN(c2ncnc3ccc(F)cc23)CCO1 (stereo not drawn) [Compound 46, N-((4-(6-fluoroquinazolin-4-yl)morpholin-2-yl)methyl)methanesulfonamide] | > 100 | 0 | 55
CS(=O)(=O)NCC1CN(c2ncnc3cc(C(N)=O)c(F)cc23)CCO1 (stereo not drawn) [Compound 47, 6-fluoro-4-(2-(methylsulfonamidomethyl)morpholino)quinazoline-7-carboxamide] | > 100 | 5 | 7
CC1(CNS(C)(=O)=O)CCCN(c2ncnc3cc(F)c(C#N)cc23)C1 (stereo not drawn) [Compound 48] | > 100 | 3 | 26
CS(=O)(=O)NCC1(O)CCCN(c2ncnc3cc(F)c(C#N)cc23)C1 (stereo not drawn) [Compound 49, N-((1-(6-cyano-7-fluoroquinazolin-4-yl)-3-hydroxypiperidin-3-yl)methyl)methanesulfonamide] | > 100 | 2 | 2
CS(=O)(=O)NCC1(F)CCCN(c2ncnc3cc(F)c(C#N)cc23)C1 (stereo not drawn) [Compound 50, N-((1-(6-cyano-7-fluoroquinazolin-4-yl)-3-fluoropiperidin-3-yl)methyl)methanesulfonamide] | > 100 | 2 | 18
CS(=O)(=O)NCC1CCN(c2ncnc3ccc(F)cc23)C1 (stereo not drawn) [Compound 51, N-((1-(6-fluoroquinazolin-4-yl)pyrrolidin-3-yl)methyl)methanesulfonamide] | > 100 | 18 | 20
CS(=O)(=O)NC1CN(c2ncnc3ccc(F)cc23)C1 [Compound 52] | > 100 | 4 | 5
N#Cc1cc2ncnc(N3CCCC(CNS(=O)(=O)C(F)(F)F)C3)c2cc1F (stereo not drawn) [Compound 53, N-((1-(7-cyano-6-fluoroquinazolin-4-yl)piperidin-3-yl)methyl)-1,1,1-trifluoromethanesulfonamide] | > 100 | 7 | 24

Source: patent US11524010B2, “Substituted quinazoline sulfonamides as thioredoxin interacting protein (TXNIP) inhibitors” (SOUTHERN RESEARCH INSTITUTE, priority 2017, dated 2022)
